Counter-ions that a name gives are not always drawn. Like-named read-outs stand apart in the source and are kept apart here.
Test system: hepatocytes isolated from Wistar rat liver
Assay: Test of inhibition of hepatic production of glucose (isolated hepatocytes, 3 h or 20 h incubation)
Assay type: cell-based
Settings: for activity at 50 µM / activity at 100 µM: Rattus norvegicus, Hepatocyte, hepatic glucose production, rat hepatocytes; for activity at 50 µM: compound at 50 μM, read-out: HGP % of ctrl @ 50 μM; for activity at 100 µM: compound at 100 μM, read-out: HGP % of ctrl @ 100 μM
Experimental: The hepatocytes are isolated from Wistar rat liver having fasted for 24 h after perfusion of collagenase in the portal vein. The freshly isolated hepatocytes are sown in 6-well plates coated with collagen and containing an adhesion medium (Williams Medium). After adhesion, the medium is replaced with RPMI 1640 medium without any glucose, containing hydrocortisone (7.10^−5M) for a duration from 16 to 18 h. The next day, the glucose hepatic production test is conducted in a Krebs medium for 3 h. The basal conditions are cells incubated with only Krebs, the stimulated conditions are the cells placed in Krebs+lactate+pyruvate, the produced conditions are the cells exposed to chemical compounds in a Krebs/lactate/pyruvate medium. In the case when the compounds are dissolved in DMSO, all the conditions of the tests are met in the presence of a final concentration of 0.1% DMSO. The positive control of the test is the mercaptopicolinate known for its inhibitory action on hepatic production of glucose via the phosphoenolpyruvate carboxykinase. For short term treatments, the compounds are incubated for 3 h. For long term treatments, the compounds are incubated for 20 h at the moment when the hepatocytes are cultivated in RPMI and then added during the hepatic production test for 3 h. At the end of the 3 hours of incubation, the supernatant is recovered for measurement of glucose with a colorimetric method using glucose oxidase. The cells are lysed with a 0.1% NaOH aqueous solution in order to measure the amount of protein with the Lowry method. The results are expressed in mmols of glucose per mg of protein.

[1] = 20 h incubation, with two doses

Row | SMILES | activity at 50 µM (3 h, 3 h incubation) [%] | activity at 100 µM (3 h, 3 h incubation) [%] | other results
1 | COc1ccc(C(=O)c2cc(CC(=O)NO)c(-c3ccc(Cl)cc3)s2)cc1 [compound 100, 2-(2-(4-chlorophenyl)-5-(4-methoxybenzoyl)thiophen-3-yl)-N-hydroxyacetamide] |  |  | inhibition of hepatic production of glucose [1]: strongest inhibitions; activity at 50 µM (20 h, 20 h incubation): 43%; activity at 100 µM (20 h, 20 h incubation): 20%
2 | COc1ccc(C(=NO)c2cc(CC(=O)O)c(-c3ccc(Cl)cc3)s2)cc1 [compound 109, 2-(2-(4-chlorophenyl)-5-((hydroxyimino)(4-methoxyphenyl)methyl)thiophen-3-yl)acetic acid] | 69 | 27 | 
3 | CON=C(c1ccc(OC)cc1)c1cc(CC(=O)O)c(-c2ccc(Cl)cc2)s1 [compound 110, 2-(2-(4-chlorophenyl)-5-((methoxyimino)(4-methoxyphenyl)methyl)thiophen-3-yl)acetic acid] | 72 | 33 | 
4 | COc1cccc(NC(=O)c2cc(CC(=O)OC(C)C)c(-c3ccc(Cl)cc3)s2)c1 [compound 115, isopropyl 2-(2-(4-chlorophenyl)-5-((3-methoxyphenyl)-carbamoyl)thiophen-3-yl)acetate] | 66 | 75 | 
5 | COc1cccc(CNC(=O)c2cc(CC(=O)OC(C)C)c(-c3ccc(Cl)cc3)s2)c1 [compound 116, isopropyl 2-(2-(4-chlorophenyl)-5-((3-methoxybenzyl)-carbamoyl)thiophen-3-yl)acetate] | 62 | 67 | 
6 | COc1ccc(NC(=O)c2cc(CC(=O)O)c(-c3ccc(Cl)cc3)s2)cc1 [compound 121, 2-(2-(4-chlorophenyl)-5-((4-methoxyphenyl)carbamoyl)thiophen-3-yl)acetic acid] | 80 | 66 | 
7 | COc1ccc(C(=O)c2cc(C(C)C(=O)O)c(-c3ccc(Cl)cc3)s2)cc1 (centres unmarked) [compound 127, 2-(2-(4-chlorophenyl)-5-(4-methoxybenzoyl)thiophen-3-yl)propanoic acid] | 54 | 23 | inhibition of hepatic production of glucose (3 h incubation, with two doses): strongest inhibitions
8 | COCC(C(=O)O)c1cc(C(=O)c2ccc(OC)cc2)sc1-c1ccc(Cl)cc1 (centres unmarked) [compound 128, 2-(2-(4-chlorophenyl)-5-(4-methoxybenzoyl)thiophen-3-yl)-3-methoxypropanoic acid] |  |  | inhibition of hepatic production of glucose [1]: strongest inhibitions; activity at 50 µM (20 h, 20 h incubation): 41%; activity at 100 µM (20 h, 20 h incubation): 16%
9 | O=C(O)Cc1cc(C(=O)c2ccco2)sc1-c1ccc(Cl)cc1F [compound 144, 2-(2-(4-chloro-2-fluorophenyl)-5-(furan-2-carbonyl)thiophen-3-yl)acetic acid] | 74 | 52 | 
10 | O=C(O)Cc1cc(C(=O)c2ccccn2)sc1-c1ccc(Cl)cc1 [compound 149, 2-(2-(4-chlorophenyl)-5-picolinoylthiophen-3-yl)acetic acid] |  |  | activity at 50 µM (20 h, 20 h incubation): 47%; activity at 100 µM (20 h, 20 h incubation): 13%
11 | O=C(c1ccco1)c1cc(Cc2noc(=O)[nH]2)c(-c2ccc(Cl)cc2)s1 [compound 153, 3-((2-(4-chlorophenyl)-5-(furan-2-carbonyl)thiophen-3-yl)-methyl)-1,2,4-oxadiazol-5(2H)-one] | 95 | 38 | 
12 | O=C(O)Cc1cc(C(=O)c2ccccc2)sc1-c1ccc(Cl)cc1 [compound 154, 2-[5-benzoyl-2-(4-chlorophenyl)-3-thienyl]acetic acid] | 81 | 63 | 
13 | COc1cc(Cl)ccc1C(=O)c1cc(CC(=O)O)c(-c2ccc(Cl)cc2)s1 [compound 156, 2-[5-(4-chloro-2-methoxy-benzoyl)-2-(4-chlorophenyl)-3-thienyl]acetic acid] | 21 | 7 | inhibition of hepatic production of glucose (3 h incubation, with two doses): strongest inhibitions
14 | O=C(O)Cc1cc(C(=O)c2ccco2)sc1-c1ccc(Cl)c(Cl)c1 [compound 159, 2-[2-(3,4-dichlorophenyl)-5-(furan-2-carbonyl)-3-thienyl]acetic acid] | 40 |  | inhibition of hepatic production of glucose (3 h incubation, at the dose of 50 μM): strongest inhibitions
15 | COc1ccc(C(=O)c2cc(CC(=O)NCCN(C)C)c(-c3ccc(Cl)c(Cl)c3)s2)cc1 [compound 166, 2-[2-(3,4-dichlorophenyl)-5-(4-methoxybenzoyl)-3-thienyl]-N-(2-dimethylaminoethyl)acetamide] | 71 | 65 | 
16 | CCON=C(c1ccc(Cl)c(Cl)c1)c1cc(CC(=O)O)c(-c2ccc(Cl)cc2)s1 [compound 167, 2-[2-(4-chlorophenyl)-5-[C-(3,4-dichlorophenyl)-N-ethoxy-carbonimidoyl]-3-thienyl]acetic acid] | 20 | 23 | inhibition of hepatic production of glucose (3 h incubation, with two doses): strongest inhibitions
17 | CCOC(=O)Cc1cc(S(=O)(=O)c2ccc(OC)cc2)sc1-c1ccc(Cl)c(Cl)c1 [compound 174, ethyl 2-[2-(3,4-dichlorophenyl)-5-(4-methoxyphenyl)sulfonyl-3-thienyl]acetate] | 73 | 77 | 
18 | CCOC(=O)Cc1cc(C(=O)NNC(=O)c2cccc(OC)c2)sc1-c1ccc(Cl)cc1 [compound 178, ethyl 2-[2-(4-chlorophenyl)-5-[[(3-methoxybenzoyl)-amino]carbamoyl]-3-thienyl]acetate] | 92 | 72 | 
19 | CCOC(=O)Cc1cc(C(=O)NNC(=O)c2ccncc2)sc1-c1ccc(Cl)cc1 [compound 179, ethyl 2-[2-(4-chlorophenyl)-5-[(pyridine-4-carbonyl-amino)-carbamoyl]-3-thienyl]acetate] | 91 | 69 | 
20 | COc1ccc(C(=O)c2cc(CC(=O)NC(=N)N)c(-c3ccc(Cl)c(Cl)c3)s2)cc1 [compound 184, N-carbamimidoyl-2-[2-(3,4-dichlorophenyl)-5-(4-methoxybenzoyl)-3-thienyl]acetamide hydrochloride] | 68 | 80 | 
21 | COc1ccc(C(=O)c2cc(CC(=O)NC(=N)N)c(-c3ccc(Cl)cc3)s2)cc1.Cl [compound 185, N-carbamimidoyl-2-(2-(4-chlorophenyl)-5-(4-methoxybenzoyl)thiophen-3-yl) acetamide hydrochloride] | 54 | 28 | inhibition of hepatic production of glucose (3 h incubation, with two doses): strongest inhibitions
22 | N=C(N)NC(=O)Cc1cc(C(=O)c2ccco2)sc1-c1ccc(Cl)cc1 [compound 186, N-carbamimidoyl-2-[2-(4-chlorophenyl)-5-(furan-2-carbonyl)-3-thienyl]acetamide hydrochloride] | 69 | 60 | 
